Among the data in ChEMBL document CHEMBL1201862, “PubChem BioAssay data set” (2004) are AC50, IC50 and EC50 values, retold here.

In assay [1] the target is T1, Histone-lysine N-methyltransferase NSD2 (Homo sapiens, UniProt O96028).
T1 sequence (O96028 whole entry): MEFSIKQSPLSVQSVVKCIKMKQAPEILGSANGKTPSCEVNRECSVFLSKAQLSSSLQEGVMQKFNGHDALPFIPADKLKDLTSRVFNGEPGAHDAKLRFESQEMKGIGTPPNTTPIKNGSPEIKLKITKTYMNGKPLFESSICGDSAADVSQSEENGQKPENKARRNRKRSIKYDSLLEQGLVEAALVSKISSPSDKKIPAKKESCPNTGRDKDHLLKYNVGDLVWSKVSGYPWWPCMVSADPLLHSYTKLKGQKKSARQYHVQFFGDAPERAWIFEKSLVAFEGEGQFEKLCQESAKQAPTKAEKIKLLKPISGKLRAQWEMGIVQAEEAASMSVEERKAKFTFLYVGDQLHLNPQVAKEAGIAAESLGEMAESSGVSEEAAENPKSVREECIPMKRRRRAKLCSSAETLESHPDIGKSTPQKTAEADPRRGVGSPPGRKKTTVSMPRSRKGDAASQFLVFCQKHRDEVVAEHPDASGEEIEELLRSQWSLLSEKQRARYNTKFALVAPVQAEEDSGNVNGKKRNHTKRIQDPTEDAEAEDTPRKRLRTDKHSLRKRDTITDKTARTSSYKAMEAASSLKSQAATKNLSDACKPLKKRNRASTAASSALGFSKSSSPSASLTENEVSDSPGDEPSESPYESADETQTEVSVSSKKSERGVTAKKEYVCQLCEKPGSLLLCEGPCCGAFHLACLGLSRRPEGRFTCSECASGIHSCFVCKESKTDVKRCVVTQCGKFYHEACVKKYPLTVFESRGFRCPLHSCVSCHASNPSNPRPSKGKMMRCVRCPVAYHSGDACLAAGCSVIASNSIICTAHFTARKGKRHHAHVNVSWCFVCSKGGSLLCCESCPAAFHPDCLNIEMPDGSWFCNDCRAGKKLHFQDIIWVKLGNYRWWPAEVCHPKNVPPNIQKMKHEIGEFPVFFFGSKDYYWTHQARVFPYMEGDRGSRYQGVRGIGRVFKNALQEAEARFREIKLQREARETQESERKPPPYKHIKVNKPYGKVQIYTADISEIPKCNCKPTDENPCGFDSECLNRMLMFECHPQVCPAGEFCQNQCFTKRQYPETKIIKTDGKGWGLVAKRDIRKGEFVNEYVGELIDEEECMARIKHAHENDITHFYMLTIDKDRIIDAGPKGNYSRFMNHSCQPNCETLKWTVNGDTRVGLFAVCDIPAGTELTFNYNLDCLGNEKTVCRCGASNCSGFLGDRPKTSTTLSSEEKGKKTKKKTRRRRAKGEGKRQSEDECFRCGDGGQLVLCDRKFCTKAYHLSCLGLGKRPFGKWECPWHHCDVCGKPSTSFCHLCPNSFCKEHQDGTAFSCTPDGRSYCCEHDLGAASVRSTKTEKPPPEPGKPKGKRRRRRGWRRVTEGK
The class given is biochemical.

The target in a further assay is Genome polyprotein (dengue virus type 2, UniProt P29990). Put plainly: Dengue-2 NS5 methyltransferase inhibitors, primary screen, biochemical, confirmation dose response (AID 588689). Type of assay: functional.
Another assay has as its target T2, Protein RecA (Mycobacterium tuberculosis, UniProt P9WHJ3).
T2 sequence (P9WHJ3 whole entry): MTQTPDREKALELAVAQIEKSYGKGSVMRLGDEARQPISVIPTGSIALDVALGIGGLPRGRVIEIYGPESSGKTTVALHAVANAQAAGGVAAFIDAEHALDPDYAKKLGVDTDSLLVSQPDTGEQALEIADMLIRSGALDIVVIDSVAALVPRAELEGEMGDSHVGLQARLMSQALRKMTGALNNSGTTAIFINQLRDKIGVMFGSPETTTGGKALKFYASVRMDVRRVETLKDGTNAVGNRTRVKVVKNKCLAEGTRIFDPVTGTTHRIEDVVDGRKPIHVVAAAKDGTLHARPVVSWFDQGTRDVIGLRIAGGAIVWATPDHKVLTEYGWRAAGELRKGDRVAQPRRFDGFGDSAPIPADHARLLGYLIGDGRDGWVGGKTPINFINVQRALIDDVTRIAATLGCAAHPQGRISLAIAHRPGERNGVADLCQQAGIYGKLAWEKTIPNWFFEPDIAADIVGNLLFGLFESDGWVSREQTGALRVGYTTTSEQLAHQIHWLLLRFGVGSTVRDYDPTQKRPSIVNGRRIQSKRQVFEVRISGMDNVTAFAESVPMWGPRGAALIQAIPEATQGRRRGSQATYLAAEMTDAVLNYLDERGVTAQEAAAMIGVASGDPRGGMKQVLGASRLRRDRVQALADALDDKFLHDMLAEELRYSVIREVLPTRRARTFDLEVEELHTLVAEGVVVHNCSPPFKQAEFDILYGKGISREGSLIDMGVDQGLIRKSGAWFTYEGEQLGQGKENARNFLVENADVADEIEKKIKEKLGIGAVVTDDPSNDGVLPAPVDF
Put plainly: Fluorescence Cell-Free Homogeneous Dose Retest to Identify Inhibitors of RecA-Intein Splicing Activity. [Related pubchem assays (depositor defined):AID2097, AID2223, AID489010, AID492950]. The class given is functional.

Calls of active or inactive are those of the source.

Sequence of Genome polyprotein (P29990 2492-3391 limits assumed): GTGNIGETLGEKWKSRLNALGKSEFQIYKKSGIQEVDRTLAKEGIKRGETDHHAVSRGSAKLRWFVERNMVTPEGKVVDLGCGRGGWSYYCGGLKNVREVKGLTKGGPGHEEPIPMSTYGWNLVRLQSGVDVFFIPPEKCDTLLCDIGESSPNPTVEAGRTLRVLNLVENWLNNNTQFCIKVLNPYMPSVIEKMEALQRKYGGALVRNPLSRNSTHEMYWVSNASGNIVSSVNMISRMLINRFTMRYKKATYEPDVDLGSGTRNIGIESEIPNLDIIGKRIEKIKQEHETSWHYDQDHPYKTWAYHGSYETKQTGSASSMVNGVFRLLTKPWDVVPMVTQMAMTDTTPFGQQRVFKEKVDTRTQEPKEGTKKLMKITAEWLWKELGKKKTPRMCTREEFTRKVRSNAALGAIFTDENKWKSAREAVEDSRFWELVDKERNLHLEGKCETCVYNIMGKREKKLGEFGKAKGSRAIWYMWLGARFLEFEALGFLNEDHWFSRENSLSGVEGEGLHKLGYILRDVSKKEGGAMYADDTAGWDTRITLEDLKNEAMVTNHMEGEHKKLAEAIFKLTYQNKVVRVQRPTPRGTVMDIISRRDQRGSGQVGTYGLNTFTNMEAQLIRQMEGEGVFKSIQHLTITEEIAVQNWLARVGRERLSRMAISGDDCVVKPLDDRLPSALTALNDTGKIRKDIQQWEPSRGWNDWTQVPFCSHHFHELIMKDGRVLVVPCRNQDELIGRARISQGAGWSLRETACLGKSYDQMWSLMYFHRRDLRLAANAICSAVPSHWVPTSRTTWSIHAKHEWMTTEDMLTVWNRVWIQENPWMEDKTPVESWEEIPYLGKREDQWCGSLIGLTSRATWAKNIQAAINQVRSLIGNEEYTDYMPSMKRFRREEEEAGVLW

On to `O=C(CCN1C(=O)/C(=C\c2ccco2)SC1=S)Nc1ccc(C(=O)O)c(O)c1`, for which the half-maximal activity concentration (AC50) (as a rule, the midpoint of the concentration-response curve, whichever way the signal moves) in assay [1] is 13.8 µM (active). In addition, the half-maximal inhibitory concentration (IC50) (usually the midpoint of a concentration-inhibition curve) at Genome polyprotein is > 100 µM (active). For the molecule `Oc1nc(Nc2ccccc2Cl)cc2ccccc12`, on Protein RecA, the EC50 (in general, the concentration giving half of the maximal effect) was 1.99 µM (active). For the molecule `O=C1C=C(c2c(O)ccc3ccccc23)c2ccccc2C1=O`, in assay [1], the AC50 was 1.7 µM (active). For the same molecule, the 50% inhibitory concentration (IC50) on Genome polyprotein is 5.91 µM (active). For the molecule `Cc1nc2c(=O)n(C)c(=O)nc-2n(C)n1`, the EC50 on Protein RecA was 0.0209 µM (active).
